Assay results reported in PubChem BioAssay AID1963849 (Molecular Pharmacology Branch, DTP, NCI, 2024).

System: 299254-011-R-J1-PDC complex spheroid viability
Assay: Anticancer human tumor 299254-011-R-J1-PDC patient-derived melanoma cell line growth inhibition [POLQ]
Details: for IC50: curve of first compound; for viability, T/C: stronger effect = lower value
How it was run: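 PDC + HUVEC + MSC complex spheroids; POLQ inhibitors ± partner drugs; top conc. at/near clinical Cmax, else 10 microM (SN-38 1 microM), half-log dilutions; 37 degrees C, 5% CO2.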

[1] = second compound 0.0316 µM, first compound 0.0316 µM
[2] = second compound 0.0316 µM, first compound 0.1 µM
[3] = second compound 0.0316 µM, first compound 0.316 µM
[4] = second compound 0.0316 µM, first compound 1 µM
[5] = second compound 0.0316 µM, first compound 3.16 µM
[6] = second compound 0.0316 µM, first compound 10 µM
[7] = second compound 0.1 µM, first compound 0.0316 µM
[8] = second compound 0.1 µM, first compound 0.1 µM
[9] = second compound 0.1 µM, first compound 0.316 µM
[10] = second compound 0.1 µM, first compound 1 µM
[11] = second compound 0.1 µM, first compound 3.16 µM
[12] = second compound 0.1 µM, first compound 10 µM
[13] = second compound 0.316 µM, first compound 0.0316 µM
[14] = second compound 0.316 µM, first compound 0.1 µM
[15] = second compound 0.316 µM, first compound 0.316 µM
[16] = second compound 0.316 µM, first compound 1 µM
[17] = second compound 0.316 µM, first compound 3.16 µM
[18] = second compound 0.316 µM, first compound 10 µM
[19] = second compound 1 µM, first compound 0.0316 µM
[20] = second compound 1 µM, first compound 0.1 µM
[21] = second compound 1 µM, first compound 0.316 µM
[22] = second compound 1 µM, first compound 1 µM
[23] = second compound 1 µM, first compound 3.16 µM
[24] = second compound 1 µM, first compound 10 µM
[25] = second compound 3.16 µM, first compound 0.0316 µM
[26] = second compound 3.16 µM, first compound 0.1 µM
[27] = second compound 3.16 µM, first compound 0.316 µM
[28] = second compound 3.16 µM, first compound 1 µM
[29] = second compound 3.16 µM, first compound 3.16 µM
[30] = second compound 3.16 µM, first compound 10 µM
[31] = second compound 10 µM, first compound 0.0316 µM
[32] = second compound 10 µM, first compound 0.1 µM
[33] = second compound 10 µM, first compound 0.316 µM
[34] = second compound 10 µM, first compound 1 µM
[35] = second compound 10 µM, first compound 3.16 µM
[36] = second compound 10 µM, first compound 10 µM
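Also: spheroids exposed to drugs for one week before measurement.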
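For viability, T/C in this document: percent viability relative to DMSO vehicle control taken as 100%.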

Structure (SMILES): CCCS(=O)(=O)Nc1ccc(F)c(C(=O)c2c[nH]c3ncc(-c4ccc(Cl)cc4)cc23)c1F + COC1C(OC(N)=O)C(O)C(Oc2ccc3c(O)c(NC(=O)c4ccc(O)c(CC=C(C)C)c4)c(=O)oc3c2C)OC1(C)C
- IC50 (second compound 0.0316 µM): > 10 µM
- IC50 (second compound 0.1 µM): > 10 µM
- IC50 (second compound 0.316 µM): > 10 µM
- IC50 (second compound 1 µM): > 10 µM
- IC50 (second compound 3.16 µM): > 10 µM
- IC50 (second compound 10 µM): > 10 µM
- viability, T/C [1]: 116%
- viability, T/C [2]: 94.3%
- viability, T/C [3]: 107%
- viability, T/C [4]: 136%
- viability, T/C [5]: 107%
- viability, T/C [6]: 69.6%
- viability, T/C [7]: 111%
- viability, T/C [8]: 97.4%
- viability, T/C [9]: 118%
- viability, T/C [10]: 105%
- viability, T/C [11]: 123%
- viability, T/C [12]: 63.8%
- viability, T/C [13]: 93.6%
- viability, T/C [14]: 99.2%
- viability, T/C [15]: 120%
- viability, T/C [16]: 117%
- viability, T/C [17]: 121%
- viability, T/C [18]: 68.8%
- viability, T/C [19]: 94%
- viability, T/C [20]: 98.4%
- viability, T/C [21]: 99.2%
- viability, T/C [22]: 107%
- viability, T/C [23]: 118%
- viability, T/C [24]: 67.5%
- viability, T/C [25]: 108%
- viability, T/C [26]: 113%
- viability, T/C [27]: 116%
- viability, T/C [28]: 126%
- viability, T/C [29]: 124%
- viability, T/C [30]: 82.8%
- viability, T/C [31]: 106%
- viability, T/C [32]: 112%
- viability, T/C [33]: 110%
- viability, T/C [34]: 118%
- viability, T/C [35]: 118%
- viability, T/C [36]: 83.4%

Structure (SMILES): O=C(Nc1ccc(O)c(NS(=O)(=O)c2ccc(F)cc2)c1)c1ccc(-c2ccccc2)cc1 + Nc1ccc(C#CCN(C(=O)Cc2ncc(C(F)(F)F)cc2C(F)(F)F)c2ccc(F)cc2)nn1
- IC50 (second compound 0.0316 µM): 9.16 µM
- IC50 (second compound 0.1 µM): 8.49 µM
- IC50 (second compound 0.316 µM): 8.65 µM
- IC50 (second compound 1 µM): 9.34 µM
- IC50 (second compound 3.16 µM): 8.68 µM
- IC50 (second compound 10 µM): > 10 µM
- viability, T/C [1]: 104%
- viability, T/C [2]: 119%
- viability, T/C [3]: 97.4%
- viability, T/C [4]: 98.2%
- viability, T/C [5]: 97.3%
- viability, T/C [6]: 46.1%
- viability, T/C [7]: 102%
- viability, T/C [8]: 99.8%
- viability, T/C [9]: 91.4%
- viability, T/C [10]: 101%
- viability, T/C [11]: 95.6%
- viability, T/C [12]: 42.4%
- viability, T/C [13]: 108%
- viability, T/C [14]: 88.4%
- viability, T/C [15]: 107%
- viability, T/C [16]: 91.8%
- viability, T/C [17]: 85.9%
- viability, T/C [18]: 44.9%
- viability, T/C [19]: 108%
- viability, T/C [20]: 94.5%
- viability, T/C [21]: 95.7%
- viability, T/C [22]: 97.5%
- viability, T/C [23]: 87.3%
- viability, T/C [24]: 47.2%
- viability, T/C [25]: 106%
- viability, T/C [26]: 92.1%
- viability, T/C [27]: 92.7%
- viability, T/C [28]: 86.8%
- viability, T/C [29]: 79.9%
- viability, T/C [30]: 45.1%
- viability, T/C [31]: 83.2%
- viability, T/C [32]: 92.4%
- viability, T/C [33]: 88%
- viability, T/C [34]: 76%
- viability, T/C [35]: 74.7%
- viability, T/C [36]: 50.6%

Structure (SMILES): COc1cccc2c1C(=O)c1c(O)c3c(c(O)c1C2=O)CC(O)(C(=O)CO)CC3OC1CC(N)C(O)C(C)O1 (stereo unspecified) + Nc1ccc(C#CCN(C(=O)Cc2ncc(C(F)(F)F)cc2C(F)(F)F)c2ccc(F)cc2)nn1
- IC50 (second compound 0.0316 µM): 1.07 µM
- IC50 (second compound 0.1 µM): 0.927 µM
- IC50 (second compound 0.316 µM): 1.02 µM
- IC50 (second compound 1 µM): 0.832 µM
- IC50 (second compound 3.16 µM): 0.75 µM
- IC50 (second compound 10 µM): 0.535 µM
- viability, T/C [1]: 120%
- viability, T/C [2]: 85.1%
- viability, T/C [3]: 83.1%
- viability, T/C [4]: 56.5%
- viability, T/C [5]: 17.8%
- viability, T/C [6]: 1.11%
- viability, T/C [7]: 89.8%
- viability, T/C [8]: 94.6%
- viability, T/C [9]: 63.5%
- viability, T/C [10]: 54.5%
- viability, T/C [11]: 17.9%
- viability, T/C [12]: 1.22%
- viability, T/C [13]: 93.1%
- viability, T/C [14]: 75.2%
- viability, T/C [15]: 65.9%
- viability, T/C [16]: 61.2%
- viability, T/C [17]: 16%
- viability, T/C [18]: 2.99%
- viability, T/C [19]: 86.6%
- viability, T/C [20]: 72.2%
- viability, T/C [21]: 87.2%
- viability, T/C [22]: 43.9%
- viability, T/C [23]: 9.65%
- viability, T/C [24]: 0.5%
- viability, T/C [25]: 94.9%
- viability, T/C [26]: 85.7%
- viability, T/C [27]: 77.1%
- viability, T/C [28]: 42.7%
- viability, T/C [29]: 0.52%
- viability, T/C [30]: 2.06%
- viability, T/C [31]: 77.7%
- viability, T/C [32]: 85.9%
- viability, T/C [33]: 65.3%
- viability, T/C [34]: 30.5%
- viability, T/C [35]: 0.39%
- viability, T/C [36]: 2.85%
